# From patent US10448639B2, “Fungicidal pyrazoles” (FMC CORPORATION, priority 2009, dated 2019)
# Columns and labels:
# [1] = tested on: Botrytis cinerea; experiment: Test B: tomato Botrytis, preventive spray on tomato seedlings, visual disease rating; conditions: tomato Botrytis; 100 = 100% disease control, 0 = no control relative to controls
# [2] = tested on: Puccinia recondita f. sp. tritici; experiment: Test H: wheat leaf rust, curative spray on inoculated wheat seedlings, visual disease rating; conditions: wheat leaf rust, curative; 100 = 100% disease control, 0 = no control relative to controls
# [3] = tested on: Septoria nodorum; experiment: Test F: Septoria glume blotch, preventive spray on wheat seedlings, visual disease rating; conditions: Septoria glume blotch; 100 = 100% disease control, 0 = no control relative to controls
# [4] = tested on: Puccinia recondita f. sp. tritici; experiment: Test I: wheat leaf rust, preventive spray on wheat seedlings, visual disease rating; conditions: wheat leaf rust, preventive; 100 = 100% disease control, 0 = no control relative to controls
# [5] = tested on: Septoria tritici; experiment: Test G: wheat leaf blotch, preventive spray on wheat seedlings, visual disease rating; conditions: wheat leaf blotch; 100 = 100% disease control, 0 = no control relative to controls
# [6] = tested on: Erysiphe graminis f sp. tritici; experiment: Test J: wheat powdery mildew, preventive spray on wheat seedlings, visual disease rating; conditions: wheat powdery mildew; 100 = 100% disease control, 0 = no control relative to controls
# [7] = tested on: Alternaria solani; experiment: Test C: tomato early blight, preventive spray on tomato seedlings, visual disease rating; conditions: tomato early blight; 100 = 100% disease control, 0 = no control relative to controls
# From the text: General protocol for preparing test suspensions for Tests A-J: the test compounds were first dissolved in acetone in an amount equal to 3% of the final volume and then suspended at the desired concentration (in ppm) in acetone and purified water (50/50 mix by volume) containing 250 ppm of the surfactant Trem® 014 (polyhydric alcohol esters). The resulting test suspensions were then used in Tests A-J. Spraying a 200 ppm test suspension to the point of run-off on the test plants was the equivalent of a rate of 500 g/ha. Unless otherwise indicated, the rating values indicate a 200 ppm test suspension was used. (An asterisk “*” next to the rating value indicates a 40 ppm test suspension was used.)
# The test suspension was sprayed to the point of run-off on tomato seedlings. The following day the seedlings were inoculated with a spore suspension of Alternaria solani (the causal agent of tomato early blight) and incubated in a saturated atmosphere at 27° C. for 48 h, and then moved to a growth chamber at 20° C. for 5 days, after which time visual disease ratings were made.
compound,measurement,setting,value
C=CCN(c1c(F)cc(OC)cc1F)c1c(-c2ccc(F)cc2Cl)c(C)nn1C [compound 159],Test B rating (% disease control),[1],99%
same,Test H rating (% disease control),[2],74%
same,Test F rating (% disease control),[3],0%
same,Test I rating (% disease control),[4],99%
same,Test G rating (% disease control),[5],100%
same,Test J rating (% disease control),[6],100%
same,Test C rating (% disease control),[7],0%
COc1ccc(-c2c(C)nn(C)c2Nc2ccc(F)cc2F)c(Cl)c1 [compound 160],Test B rating (% disease control),[1],98%
same,Test H rating (% disease control),[2],8%
same,Test F rating (% disease control),[3],0%
same,Test I rating (% disease control),[4],100%
same,Test G rating (% disease control),[5],99%
same,Test J rating (% disease control),[6],100%
same,Test C rating (% disease control),[7],99%
COc1ccc(-c2c(C)nn(C)c2Nc2c(F)cccc2F)c(Cl)c1 [compound 161],Test B rating (% disease control),[1],98%
same,Test H rating (% disease control),[2],95%
same,Test F rating (% disease control),[3],0%
same,Test I rating (% disease control),[4],100%
same,Test G rating (% disease control),[5],100%
same,Test J rating (% disease control),[6],98%
same,Test C rating (% disease control),[7],100%
Cc1nn(C)c(Nc2ccc(C#N)cc2Cl)c1-c1ccc(F)cc1Cl [compound 162],Test B rating (% disease control),[1],99%
same,Test H rating (% disease control),[2],8%
same,Test F rating (% disease control),[3],0%
same,Test I rating (% disease control),[4],98%
same,Test G rating (% disease control),[5],99%
same,Test J rating (% disease control),[6],94%
same,Test C rating (% disease control),[7],0%
Cc1nn(C)c(Oc2cc(C#N)c(C#N)cc2Cl)c1-c1c(F)cc(F)cc1F [compound 163],Test B rating (% disease control),[1],0%
same,Test H rating (% disease control),[2],0%
same,Test F rating (% disease control),[3],0%
same,Test I rating (% disease control),[4],88%
same,Test G rating (% disease control),[5],83%
same,Test J rating (% disease control),[6],0%
same,Test C rating (% disease control),[7],9%
COc1cc(Oc2c(-c3c(F)cc(F)cc3F)c(C)nn2C)ccc1Cl [compound 164],Test B rating (% disease control),[1],49%
same,Test H rating (% disease control),[2],15%
same,Test F rating (% disease control),[3],0%
same,Test I rating (% disease control),[4],9%
same,Test G rating (% disease control),[5],99%
same,Test J rating (% disease control),[6],97%
same,Test C rating (% disease control),[7],57%
Cc1cc(Oc2c(-c3c(F)cc(F)cc3F)c(C)nn2C)ccc1Br [compound 165],Test B rating (% disease control),[1],0%
same,Test H rating (% disease control),[2],8%
same,Test F rating (% disease control),[3],0%
same,Test I rating (% disease control),[4],0%
same,Test G rating (% disease control),[5],52%
same,Test J rating (% disease control),[6],99%
same,Test C rating (% disease control),[7],0%
COc1cc(Oc2c(-c3c(F)cc(F)cc3F)c(C)nn2C)ccc1Br [compound 166],Test B rating (% disease control),[1],0%
same,Test H rating (% disease control),[2],0%
same,Test F rating (% disease control),[3],0%
same,Test I rating (% disease control),[4],68%
same,Test G rating (% disease control),[5],97%
same,Test J rating (% disease control),[6],96%
same,Test C rating (% disease control),[7],0%
Cc1nn(C)c(Oc2cc(F)cc(F)c2F)c1-c1c(F)cc(F)cc1F [compound 167],Test B rating (% disease control),[1],75%
same,Test H rating (% disease control),[2],0%
same,Test F rating (% disease control),[3],0%
same,Test I rating (% disease control),[4],0%
same,Test G rating (% disease control),[5],0%
same,Test J rating (% disease control),[6],0%
same,Test C rating (% disease control),[7],0%
Cc1nn(C)c(Oc2ccc(C#N)c(C#N)c2)c1-c1ccc(F)cc1Cl [compound 168],Test B rating (% disease control),[1],14%
same,Test H rating (% disease control),[2],0%
same,Test F rating (% disease control),[3],0%
same,Test I rating (% disease control),[4],0%
same,Test G rating (% disease control),[5],33%
same,Test J rating (% disease control),[6],0%
same,Test C rating (% disease control),[7],0%
Cc1nn(C)c(Oc2ccc(C#N)c(C#N)c2)c1-c1c(F)cc(F)cc1F [compound 169],Test B rating (% disease control),[1],24%
same,Test H rating (% disease control),[2],0%
same,Test F rating (% disease control),[3],0%
same,Test I rating (% disease control),[4],0%
same,Test G rating (% disease control),[5],85%
same,Test J rating (% disease control),[6],0%
same,Test C rating (% disease control),[7],0%
Cc1nn(C)c(Oc2c(F)cc(C#N)cc2F)c1-c1ccc(F)cc1F [compound 170],Test B rating (% disease control),[1],100%
same,Test H rating (% disease control),[2],0%
same,Test F rating (% disease control),[3],99%
same,Test I rating (% disease control),[4],100%
same,Test G rating (% disease control),[5],98%
same,Test J rating (% disease control),[6],99%
same,Test C rating (% disease control),[7],99%
Cc1nn(C)c(Nc2c(F)ccc(F)c2F)c1-c1ccc(F)cc1Cl [compound 171],Test B rating (% disease control),[1],100%
same,Test H rating (% disease control),[2],68%
same,Test F rating (% disease control),[3],0%
same,Test I rating (% disease control),[4],99%
same,Test G rating (% disease control),[5],97%
same,Test J rating (% disease control),[6],100%
same,Test C rating (% disease control),[7],97%
Cc1nn(C)c(Nc2cc(F)ccc2F)c1-c1ccc(F)cc1Cl [compound 173],Test B rating (% disease control),[1],100%
same,Test H rating (% disease control),[2],0%
same,Test F rating (% disease control),[3],0%
same,Test I rating (% disease control),[4],83%
same,Test G rating (% disease control),[5],98%
same,Test J rating (% disease control),[6],100%
same,Test C rating (% disease control),[7],86%
COc1ccc(-c2c(C)nn(C)c2Nc2c(F)ccc(F)c2F)c(Cl)c1 [compound 174],Test B rating (% disease control),[1],100%
same,Test H rating (% disease control),[2],0%
same,Test F rating (% disease control),[3],0%
same,Test I rating (% disease control),[4],97%
same,Test G rating (% disease control),[5],96%
same,Test J rating (% disease control),[6],99%
same,Test C rating (% disease control),[7],99%
COc1ccc(-c2c(C)nn(C)c2Nc2cc(F)ccc2F)c(Cl)c1 [compound 176],Test B rating (% disease control),[1],100%
same,Test H rating (% disease control),[2],0%
same,Test F rating (% disease control),[3],0%
same,Test I rating (% disease control),[4],68%
same,Test G rating (% disease control),[5],96%
same,Test J rating (% disease control),[6],100%
same,Test C rating (% disease control),[7],71%
Cc1nn(C)c(Nc2ccc(F)cc2F)c1-c1c(F)cccc1Cl [compound 177],Test B rating (% disease control),[1],100%
same,Test H rating (% disease control),[2],0%
same,Test F rating (% disease control),[3],73%
same,Test I rating (% disease control),[4],83%
same,Test G rating (% disease control),[5],98%
same,Test J rating (% disease control),[6],100%
same,Test C rating (% disease control),[7],100%
Cc1nn(C)c(Nc2ccc(F)cc2F)c1-c1c(F)cccc1F [compound 178],Test B rating (% disease control),[1],100%
same,Test H rating (% disease control),[2],0%
same,Test F rating (% disease control),[3],80%
same,Test I rating (% disease control),[4],83%
same,Test G rating (% disease control),[5],98%
same,Test J rating (% disease control),[6],100%
same,Test C rating (% disease control),[7],100%
Cc1nn(C)c(Nc2ccc(Cl)cc2Cl)c1-c1c(F)cccc1F [compound 179],Test B rating (% disease control),[1],100%
same,Test H rating (% disease control),[2],0%
same,Test F rating (% disease control),[3],73%
same,Test I rating (% disease control),[4],93%
same,Test G rating (% disease control),[5],95%
same,Test J rating (% disease control),[6],100%
same,Test C rating (% disease control),[7],99%
COc1ccc(Nc2c(-c3c(F)cccc3F)c(C)nn2C)c(F)c1 [compound 180],Test B rating (% disease control),[1],100%
same,Test H rating (% disease control),[2],0%
same,Test F rating (% disease control),[3],0%
same,Test I rating (% disease control),[4],68%
same,Test G rating (% disease control),[5],98%
same,Test J rating (% disease control),[6],100%
same,Test C rating (% disease control),[7],99%
Cc1nn(C)c(Nc2ccc(F)cc2F)c1-c1ccccc1F [compound 181],Test B rating (% disease control),[1],94%
same,Test H rating (% disease control),[2],0%
same,Test F rating (% disease control),[3],0%
same,Test I rating (% disease control),[4],60%
same,Test G rating (% disease control),[5],100%
same,Test J rating (% disease control),[6],98%
same,Test C rating (% disease control),[7],44%
Cc1nn(C)c(Nc2c(F)cc(F)cc2F)c1-c1ccccc1F [compound 182],Test B rating (% disease control),[1],97%
same,Test H rating (% disease control),[2],0%
same,Test F rating (% disease control),[3],87%
same,Test I rating (% disease control),[4],95%
same,Test G rating (% disease control),[5],100%
same,Test J rating (% disease control),[6],99%
same,Test C rating (% disease control),[7],99%
COc1cc(F)c(Nc2c(-c3ccccc3F)c(C)nn2C)c(F)c1 [compound 183],Test B rating (% disease control),[1],97%
same,Test H rating (% disease control),[2],27%
same,Test F rating (% disease control),[3],67%
same,Test I rating (% disease control),[4],94%
same,Test G rating (% disease control),[5],99%
same,Test J rating (% disease control),[6],99%
same,Test C rating (% disease control),[7],100%
Cc1nn(C)c(Nc2ccc(F)cc2)c1-c1ccccc1F [compound 184],Test B rating (% disease control),[1],97%
same,Test H rating (% disease control),[2],0%
same,Test F rating (% disease control),[3],0%
same,Test I rating (% disease control),[4],82%
same,Test G rating (% disease control),[5],99%
same,Test J rating (% disease control),[6],98%
same,Test C rating (% disease control),[7],0%
COc1cc(F)c(-c2c(C)nn(C)c2Oc2ccc(Cl)c(C)c2)c(F)c1 [compound 185],Test B rating (% disease control),[1],0%
same,Test H rating (% disease control),[2],0%
same,Test F rating (% disease control),[3],0%
same,Test I rating (% disease control),[4],74%
same,Test G rating (% disease control),[5],100%
same,Test J rating (% disease control),[6],98%
same,Test C rating (% disease control),[7],0%
